In test [1] the test system is metastasising pancreatic carcinoma. As to the kind of experiment: Nucleosome concentration in serum (Cell Death Detection plus ELISA) of a patient during chemotherapy. It is filed as in vivo. Particulars: one patient, FIG. 9; for nucleosome concentration in the serum at the beginning of a cycle: combination Gemcitabine 1000 mg/m^2 (day 1, 8, 15) and Cisplatin 50 mg/m^2 (day 1, 15), then decreased slowly; for nucleosome concentration in the serum after start of new therapy scheme: combination folic acid 300 mg/m^2 and 5-fluorouracil 500 mg/m^2 on each of days 1 to 5, only a partial decrease afterwards. The protocol: The Cell Death Detection^plus ELISA (Boehringer Mannheim, Cat. No. 1 774 425) is based on the quantitative sandwich enzyme immunoassay principle. Two monoclonal mouse antibodies are used which are directed against DNA and histones. The test can be carried out with cytoplasmic lysates, culture supernatants, plasma, serum and other body fluids and allows a specific detection of mononucleosomes and oligonucleosomes. The description given here applies to measurements in liquid media:
A 20 μl aliquot of the material to be tested is pipetted into a well of a streptavidin-coated microtitre plate (MTP). 80 μl of an immunoreagent composed of biotinylated anti-histone antibodies, peroxidase-labelled anti-DNA antibodies and incubation buffer (1% BSA, 0.5% Tween, 1 mM EDTA in PBS) is added, covered with an adhesive foil and incubated for 2 hours on a MTP shaker (500 rpm). During this incubation period the anti-histone antibody reacts with the histone component of the nucleosomes and immobilizes the complex via the biotin on the streptavidin-coated microtitre plate. In addition the anti-DNA antibody binds to the DNA component of the nucleosomes. In this process ds as well as ss DNA is recognized. After removing the antibody that is still unbound by washing three times with 300-400 μl incubation buffer in each case, the immobilized complexes are incubated with 100 μl ABTS (2,2′-azino-di(3-ethyl-benzthiazoline sulfonate), the MTP is sealed with an adhesive foil and shaken at 250 rpm. The substrate reacts with the peroxidase label of the anti-DNA antibody and causes a colour change that is proportional to these antibodies. After an adequate colour development period it is photometrically quantified at d=405 nm against the substrate solution as a blank (reference wavelength d=492 nm).
Therefore absolute concentration data are not used and a scale of so-called AUs (arbitrary units) is introduced. 1000 AU equates with the highest standard level (2500 mA after 30 min); the scale is linear. This therefore takes into account the lack of knowledge about the ratio of mononucleosomes to oligonucleosomes and the resulting variability concerning the amount of binding sites of the antibodies while at the same time increasing the comparability between the tests.
After thawing attention must be paid to adjustment to room temperature and careful homogenization of the sample material. The serum samples are diluted 1:4 with incubation buffer (20 μl serum, 60 μl incubation buffer) and subsequently used in the test.
The nucleosome content was measured in patients under chemotherapy before therapy and on the second and fourth day and one week after administration of the first dose and in addition weekly or before the start of the next treatment cycle.

Test [2] has the same test system. As to the kind of experiment: Clinical course of the patient during chemotherapy. Particulars: one patient, FIG. 9. It is filed as in vivo. An excerpt: The effectiveness of tumour therapy can be determined by means of the remission rate on the basis of image generating processes (X-ray, computer tomography). By definition a complete remission is understood as the complete disappearance of the tumour for at least eight weeks and partial remission means a regression of the tumour manifestations by more than 50% with regard to their volume; no change reflects the state between a 50% decrease and a 25% increase of the tumour mass; progression denotes a progression of more than 25% (UICC criteria).

The mark [3] stands for this setting: combination Gemcitabine and Cisplatin.
The mark [4] stands for this setting: combination folic acid and 5-fluorouracil, continuous increase of CEA.

Consider `Nc1ccn([C@@H]2O[C@H](CO)[C@@H](O)C2(F)F)c(=O)n1` [Gemcitabine], for which the “nucleosome concentration in the serum at the beginning of a cycle” value in test [1] is “increased rapidly”. The “clinical course under therapy” value in test [2] (setting [3]) was “clinical progressive deterioration”.

As for `N.N.[Cl][Pt][Cl]` [Cisplatin], in test [1], the “nucleosome concentration in the serum at the beginning of a cycle” value is listed as “increased rapidly”. Besides, the “clinical course under therapy” value in test [2] (setting [3]) was “clinical progressive deterioration”.

With `Nc1nc2ncc(CNc3ccc(C(=O)N[C@@H](CCC(=O)O)C(=O)O)cc3)nc2c(=O)[nH]1` [folic acid], the “nucleosome concentration in the serum after start of new therapy scheme” value in test [1] is “rapid increase”. Also, the “clinical course under therapy” value in test [2] (setting [4]) is given as “progressive course”.

Consider `O=c1[nH]cc(F)c(=O)[nH]1` [5-fluorouracil], for which the “nucleosome concentration in the serum after start of new therapy scheme” value in test [1] is “rapid increase”. Further, the “clinical course under therapy” value in test [2] (setting [4]) is on record as “progressive course”.

Values taken from patent US7759071B2, “Determination of apoptotic products in tumor patients undergoing therapy” (Roche Diagnostics, priority 1998, dated 2010).
